In patent US20060205637A1, “Fluoro-alkyl-cyclopeptide derivatives having anti-integrin activity” (Sigma-Tau Industrie Farmaceutiche Riunite S.p.A., priority 2002, published 2006):
Read-outs that look alike come from different tables or passages of the source.

Legend:
integrin αvβ3 = biological target: T1, integrin αvβ3 (Homo sapiens, UniProt P05106+P06756); test: Binding to integrin αvβ3 receptors ((125I) Echistatin displacement); details: for IC50: 0.05 nM (125I) Echistatin, 3-hour incubation, plate coated with 0.5 μg/ml integrin, read-out: αvβ3 IC50 ± SD
T1 construct: purchased Chemicon CC1020
T1 sequence (P06756 31-889 limits assumed): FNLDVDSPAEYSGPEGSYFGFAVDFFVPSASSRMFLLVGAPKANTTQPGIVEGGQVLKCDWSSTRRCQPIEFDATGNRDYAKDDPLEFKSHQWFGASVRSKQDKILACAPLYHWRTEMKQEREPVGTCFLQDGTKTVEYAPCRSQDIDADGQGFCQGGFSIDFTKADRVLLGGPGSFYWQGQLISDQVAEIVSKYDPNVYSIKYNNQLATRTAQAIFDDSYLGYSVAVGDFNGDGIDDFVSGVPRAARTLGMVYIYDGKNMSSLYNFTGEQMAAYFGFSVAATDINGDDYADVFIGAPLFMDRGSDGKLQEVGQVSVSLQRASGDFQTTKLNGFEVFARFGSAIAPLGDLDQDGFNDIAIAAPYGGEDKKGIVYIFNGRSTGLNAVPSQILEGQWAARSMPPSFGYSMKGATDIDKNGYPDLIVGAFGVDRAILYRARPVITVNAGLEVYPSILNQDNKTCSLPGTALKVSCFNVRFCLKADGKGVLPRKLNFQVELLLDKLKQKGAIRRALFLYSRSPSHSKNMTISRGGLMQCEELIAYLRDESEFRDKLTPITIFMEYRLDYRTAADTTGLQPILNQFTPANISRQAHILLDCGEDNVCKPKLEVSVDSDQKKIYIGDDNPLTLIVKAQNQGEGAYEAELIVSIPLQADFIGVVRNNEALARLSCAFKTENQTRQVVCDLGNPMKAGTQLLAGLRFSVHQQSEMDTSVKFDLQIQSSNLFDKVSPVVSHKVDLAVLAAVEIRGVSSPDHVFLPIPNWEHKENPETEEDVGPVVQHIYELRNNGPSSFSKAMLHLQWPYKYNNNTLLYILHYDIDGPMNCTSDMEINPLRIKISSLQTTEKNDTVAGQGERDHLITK
T1 sequence (P06756 891-1048 partner limits assumed): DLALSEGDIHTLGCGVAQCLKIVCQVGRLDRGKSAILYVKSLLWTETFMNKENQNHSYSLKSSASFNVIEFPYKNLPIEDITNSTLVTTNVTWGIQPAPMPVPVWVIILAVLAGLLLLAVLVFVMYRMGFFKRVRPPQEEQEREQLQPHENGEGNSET
T1 sequence (P05106 27-788): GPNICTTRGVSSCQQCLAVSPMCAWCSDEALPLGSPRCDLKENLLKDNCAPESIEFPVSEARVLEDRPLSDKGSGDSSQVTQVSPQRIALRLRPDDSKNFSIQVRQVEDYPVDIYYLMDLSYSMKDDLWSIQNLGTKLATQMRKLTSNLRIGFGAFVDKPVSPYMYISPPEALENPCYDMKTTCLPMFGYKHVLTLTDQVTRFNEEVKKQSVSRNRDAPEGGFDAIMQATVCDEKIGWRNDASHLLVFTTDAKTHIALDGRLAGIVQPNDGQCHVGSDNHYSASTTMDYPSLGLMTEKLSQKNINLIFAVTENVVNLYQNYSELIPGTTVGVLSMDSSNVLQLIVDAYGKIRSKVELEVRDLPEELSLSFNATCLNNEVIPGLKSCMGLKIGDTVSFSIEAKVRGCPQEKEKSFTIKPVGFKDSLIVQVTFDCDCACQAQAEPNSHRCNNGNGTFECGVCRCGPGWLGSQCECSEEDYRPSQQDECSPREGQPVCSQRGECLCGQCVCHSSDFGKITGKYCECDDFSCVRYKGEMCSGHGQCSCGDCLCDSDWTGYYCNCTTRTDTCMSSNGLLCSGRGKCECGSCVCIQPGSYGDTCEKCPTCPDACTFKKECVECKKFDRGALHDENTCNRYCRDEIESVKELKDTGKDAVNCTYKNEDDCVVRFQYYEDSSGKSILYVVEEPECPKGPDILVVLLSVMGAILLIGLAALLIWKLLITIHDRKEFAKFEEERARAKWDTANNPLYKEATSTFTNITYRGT
Protocol: 96-well plates were subjected overnight to coating with 0.5 μg/ml of integrin αvβ3 (Chemicon, cat. CC1020). On the next day, the wells were washed and incubation was performed with 0.05 nM of (^125I) Echistatin (Amersham, cat. IM304) in the absence or presence of compounds according to the invention. After a 3-hour incubation and a series of washings, the integrin from each well bound to the radioactive substance was solubilised with NaOH 2N, and the radioactivity was then measured using a gamma counter. Non-specific binding, to be subtracted from all samples, was determined in the presence of Echistatin 1 μM.
(§1) The affinity of the compounds according to the present invention for vitronectin receptors was expressed as the IC50±SD value (nM) which is a parameter elaborated using “ALLFIT” software.

integrin αvβ5 = biological target: T2, integrin αvβ5 (Homo sapiens, UniProt P06756+P18084); test: Binding to integrin αvβ5 receptors ((125I) Echistatin displacement); details: for IC50: 0.05 nM (125I) Echistatin, plate coated with 1 μg/ml integrin, read-out: αvβ5 IC50 ± SD
T2 construct: purchased Chemicon CC1022
T2 sequence (P06756 31-889 limits assumed): as the sequence (P06756 31-889 limits assumed) above
T2 sequence (P06756 891-1048 partner limits assumed): as the sequence (P06756 891-1048 partner limits assumed) above
T2 sequence (P18084 24-799): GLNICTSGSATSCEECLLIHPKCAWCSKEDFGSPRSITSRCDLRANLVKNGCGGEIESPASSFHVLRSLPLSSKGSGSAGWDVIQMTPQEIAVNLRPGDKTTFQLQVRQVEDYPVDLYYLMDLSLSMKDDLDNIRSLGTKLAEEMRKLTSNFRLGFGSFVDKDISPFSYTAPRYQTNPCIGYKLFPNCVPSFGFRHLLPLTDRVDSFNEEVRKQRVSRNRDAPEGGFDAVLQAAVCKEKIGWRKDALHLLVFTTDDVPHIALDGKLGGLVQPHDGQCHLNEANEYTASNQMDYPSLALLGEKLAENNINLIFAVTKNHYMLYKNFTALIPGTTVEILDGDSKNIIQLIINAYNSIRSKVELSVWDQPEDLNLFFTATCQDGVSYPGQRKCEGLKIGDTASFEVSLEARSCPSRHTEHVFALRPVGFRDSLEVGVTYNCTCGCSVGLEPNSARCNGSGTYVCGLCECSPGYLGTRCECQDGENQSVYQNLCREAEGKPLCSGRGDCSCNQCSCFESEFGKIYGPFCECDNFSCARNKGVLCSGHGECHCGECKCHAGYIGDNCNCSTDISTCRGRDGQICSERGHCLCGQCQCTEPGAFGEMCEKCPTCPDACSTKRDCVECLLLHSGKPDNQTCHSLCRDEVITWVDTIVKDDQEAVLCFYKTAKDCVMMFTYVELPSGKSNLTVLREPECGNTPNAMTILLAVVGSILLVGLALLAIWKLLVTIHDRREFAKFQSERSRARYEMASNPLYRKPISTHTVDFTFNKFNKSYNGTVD
Protocol: On the next day, the wells were washed and incubation was performed with 0.05 nM of(^125I) Echistatin (Amersham, cat. IM304) in the absence or presence of compounds according to the invention. The process then proceeded as described in the previous case.
as §1

[1] = test system: Human melanoma MeWo cells; test: Cell adhesion assay on vitronectin, MeWo; format: cell-based; details: inhibition of cell adhesion to human vitronectin, 0.1 to 100 μM; read-out: MeWo IC50 ± SD
Protocol: Human melanoma MeWo cells from the American Type Culture Collection (ATCC) were kept in culture in complete Eagle Minimal Essential Medium (EMEM) containing 10% FCS, 2 mM L-glutamine and 50 μg/ml gentamicin.
(§2) 96-well plates were pretreated with 5 μg/ml of human vitronectin (Cal-biochem) for 12 hours at +4° C. BMEC or MeWo cells were detached with trypsin-EDTA, counted and plated on vitronectin substrate. The molecules were assayed at scalar concentrations ranging from 0.1 to 100 μM and co-incubated with the cells left to adhere. […] The adhereing cells were fixed with a 4% paraformaldehyde solution for 10 minutes at room temperature. The cells were then stained with a 1% toluidine blue solution for 10 minutes at room temperature. After staining, the cells were washed in double-distilled water, dried and solubilised with a 1% SDS solution. The cells were then quantified by means of absorbance reading on a Victor multilabel plate counter (Wal-lac) at 600 nm.
(§3) The evaluation parameter for the activity of the molecules was the value IC50±SD (μM).

[2] = test system: bovine microvascular endothelial cells (BMEC)
Protocol: Microvascular endothelial cells from bovine adrenal glands (bovine microvascular endothelial cells—BMEC) were isolated from animals that had just been sacrificed and were stored in ice up to their arrival in the laboratory. In sterile conditions, the glands were washed in a solution of betadine for 5 minutes and then in 2 liters of sterile PBS. The glands were then cut with a disposable sterile lancet into fragments of approximately 2 mm and transferred to polystyrene Falcon tubes containing PBS (30 ml per gland). After centrifuging at 600 rpm in a centrifuge cooled to +4° C., the supernatant was decanted. The pellet was resuspended 1:2 with a 0.12% solution of collagenase A (Boehringer Mannheim) and incubated at 37° C. for 2 hours under stirring. After subsequent filtration on filters (Sigma), first of 200, and then 100 mesh, the supernatant was added to a solution of DMEM containing 15% FBS to inhibit the action of the collagenase A. The solution was centrifuged at 1000 rpm at room temperature and the precipitate resuspended in DMEM medium containing 20% FBS, 50 μg/ml of bovine brain extract (BBE), 50 μg/ml of heparin (Sigma), 0.5% v/v gentamicin (Sigma), and 1% v/v L-glutamine. The cells were seeded on Petri dishes gelatinised with 1% gelatin (Sigma porcine gelatin). At confluence, the cells were characterised with endothelial markers as Factor VIII.

[3] = test system: SK-LMS-1 human leiomyosarcoma cells; test: Cell adhesion assay on vitronectin, SK-LMS-1; format: cell-based; details: inhibition of cell adhesion to human vitronectin, 0.1 to 100 μM; read-out: SK-LMS1 IC50 ± SD
Protocol: SK-LMS-1 human leiomyosarcoma cells (ATCC) were grown in EMEM supplemented with 10% FCS, 2 mM L-glutamine and 50 μg/ml gentamicin.
as §2, §3

| IC50 (integrin αvβ3) | IC50 (integrin αvβ5) | Molecule | IC50 [1] | IC50 [2] | further results |
| --- | --- | --- | --- | --- | --- |
| – | – | CN1C(=O)[C@@H](Cc2ccccc2)NC(=O)[C@H](CC(=O)O)NC(=O)CNC(=O)[C@H](CCCNC(=N)N)NC(=O)C1(Cc1ccccc1)C(F)(F)F (single isomer, unassigned) [ST2552, c(Arg-Gly-Asp-D-Phe-(R or S)—N-Me-Tfm-Phe)] | 0.33 ± 0.05 µM | > 100 µM | binding affinity for vitronectine receptor αvβ3 (in words) (integrin αvβ3): high binding affinity; binding affinity for vitronectine receptor αvβ5 (in words) (integrin αvβ5): high binding affinity |
| – | – | N=C(N)NCCC[C@@H]1NC(=O)C(Cc2ccccc2)(C(F)(F)F)NC(=O)[C@@H](Cc2ccccc2)NC(=O)[C@H](CC(=O)O)NC(=O)CNC1=O (single isomer, unassigned) [ST1930, C(Arg-Gly-Asp-D-Phe-(R or S)-Tfm-Phe)] | 6.9 ± 1.3 µM | 8.9 ± 0.4 µM | – |
| > 10 µM | > 10 µM | CC(C)[C@@H]1NC(=O)[C@@H](Cc2ccccc2)NC(=O)C(CC(=O)O)(C(F)(F)F)NC(=O)CNC(=O)[C@H](CCCNC(=N)N)NC1=O (single isomer, unassigned) [ST2189, c(Arg-Gly-(R or S)-Tfm-Asp-D-Phe-Val)] | – | – | – |
| – | – | CC(C)C1(C(F)(F)F)NC(=O)[C@@H](Cc2ccccc2)NC(=O)[C@H](CC(=O)O)NC(=O)CNC(=O)[C@H](CCCNC(=N)N)NC1=O (single isomer, unassigned) [ST2410, c(Arg-Gly-Asp-D-Phe-(R or S)-Tfm-Val)] | – | 77.6 ± 7.2 µM | IC50 [3]: > 100 µM |
| – | – | CC(C)C1(C(F)(F)F)NC(=O)[C@@H](Cc2ccccc2)NC(=O)[C@H](CC(=O)O)NC(=O)CNC(=O)[C@H](CCCNC(=N)N)NC1=O (single isomer, unassigned) [ST2409, c(Arg-Gly-Asp-D-Phe-(R or S)-Tfm-Val)] | – | 12.5 ± 1.5 µM | IC50 [3]: 15.9 ± 1.6 µM |
| > 10 µM | > 10 µM | CC(C)[C@@H]1NC(=O)[C@@H](Cc2ccccc2)NC(=O)C(CC(=O)O)(C(F)(F)F)NC(=O)CNC(=O)[C@H](CCCNC(=N)N)NC1=O (single isomer, unassigned) [ST2190, c(Arg-Gly-(R or S)-Tfm-Asp-D-Phe-Val)] | – | – | – |
| 0.332 ± 0.101 µM | 0.0055 ± 0.0008 µM | c(Arg-Gly-Asp-D-Phe-(R,S)-Dfm-Phe) [ST1932] | 13.9 ± 4.3 µM | – | IC50 ([2]; read-out: BMEC IC50 ± SD, inhibition of cell adhesion to human vitronectin, 0.1 to 100 μM): 14.2 ± 1 µM |

| Molecule | IC50 (integrin αvβ3) | IC50 (integrin αvβ5) | IC50 [1] | IC50 [2] | further results |
| --- | --- | --- | --- | --- | --- |
| CC(C)[C@@H]1NC(=O)C(Cc2ccccc2)(C(F)(F)F)NC(=O)[C@H](CC(=O)O)NC(=O)CNC(=O)[C@H](CCCNC(=N)N)NC1=O (single isomer, unassigned) [ST2192, c(Arg-Gly-Asp-(R o S)-Tfm-Phe-Val)] | 1.02 ± 0.348 µM | 0.0727 ± 0.0038 µM | – | > 100 µM | – |
| CC(C)[C@@H]1NC(=O)C(Cc2ccccc2)(C(F)(F)F)NC(=O)[C@H](CC(=O)O)NC(=O)CNC(=O)[C@H](CCCNC(=N)N)NC1=O (single isomer, unassigned) [ST2191, c(Arg-Gly-Asp-(R o S)-Tfm-Phe-Val)] | 0.237 ± 0.064 µM | 0.01 ± 0.0019 µM | 21.9 ± 2.5 µM | 18.8 ± 4.4 µM | – |
